This passage reports activity coefficient results from the NIST ThermoML archive (doi:10.1016/j.fluid.2014.06.021).

± gives the expanded uncertainty stated by the source.

The data set in a line: activity coefficient (dimensionless); of the first substance listed, at infinite dilution; xn = mol fraction of the nth substance listed. Particulars: 101.33 kPa, Liquid, Chromatography, x1 = 0.

In the case of `CC#N` [acetonitrile] + C[n+]1ccn(CCCCS(=O)(=O)O)c1.O=S(=O)([N-]S(=O)(=O)C(F)(F)F)C(F)(F)F, the activity coefficient by setting is: (323.15 K) 0.4 ± 0.1; (333.15 K) 0.42 ± 0.04; (343.15 K) 0.45 ± 0.04.

On to `CC#N` [acetonitrile] + C[n+]1ccn(CCCCS(=O)(=O)O)c1.O=S(=O)([O-])C(F)(F)F, for which the activity coefficient (323.15 K) is 0.68 ± 0.05, the activity coefficient (333.15 K) is 0.67 ± 0.05 and the activity coefficient (343.15 K) was found to be 0.68 ± 0.05.

Turning to `CC#N` [acetonitrile] + C[n+]1ccn(CCCCS(=O)(=O)O)c1.O=S(=O)([O-])O, the activity coefficient (323.15 K) turned out to be 1.74 ± 0.12, the activity coefficient (333.15 K) was found to be 1.73 ± 0.12 and the activity coefficient (343.15 K) was 1.73 ± 0.12.

In the case of `c1ccccc1` [benzene] + C[n+]1ccn(CCCCS(=O)(=O)O)c1.O=S(=O)([N-]S(=O)(=O)C(F)(F)F)C(F)(F)F, the activity coefficient is, setting by setting: (323.15 K) 1.95 ± 0.13; (333.15 K) 2.07 ± 0.14; (343.15 K) 2.15 ± 0.15.

As for `c1ccccc1` [benzene] + C[n+]1ccn(CCCCS(=O)(=O)O)c1.O=S(=O)([O-])C(F)(F)F, the activity coefficient is, setting by setting: (323.15 K) 3.36 ± 0.23; (333.15 K) 3.29 ± 0.22; (343.15 K) 3.2 ± 0.2.

With `c1ccccc1` [benzene] + C[n+]1ccn(CCCCS(=O)(=O)O)c1.O=S(=O)([O-])O, the activity coefficient (323.15 K) is 14.4 ± 0.98, the activity coefficient (333.15 K) was 12.5 ± 0.85 and the activity coefficient (343.15 K) amounted to 12.2 ± 0.83.

With `CCCCO` [butan-1-ol] + C[n+]1ccn(CCCCS(=O)(=O)O)c1.O=S(=O)([N-]S(=O)(=O)C(F)(F)F)C(F)(F)F, the activity coefficient was determined as 0.19 ± 0.03 (333.15 K) and 0.23 ± 0.03 (343.15 K).

As for `CCC(C)=O` [butanone] + C[n+]1ccn(CCCCS(=O)(=O)O)c1.O=S(=O)([N-]S(=O)(=O)C(F)(F)F)C(F)(F)F, the activity coefficient reads like this: (323.15 K) 0.24 ± 0.03; (333.15 K) 0.27 ± 0.03; (343.15 K) 0.3 ± 0.1.

For `CCC(C)=O` [butanone] + C[n+]1ccn(CCCCS(=O)(=O)O)c1.O=S(=O)([O-])C(F)(F)F, the activity coefficient by setting is: (323.15 K) 1.06 ± 0.07; (333.15 K) 1 ± 0.06; (343.15 K) 0.96 ± 0.06.

`CCC(C)=O` [butanone] + C[n+]1ccn(CCCCS(=O)(=O)O)c1.O=S(=O)([O-])O: the activity coefficient was found to be 5.49 ± 0.37 (323.15 K), 5.17 ± 0.35 (333.15 K) and 4.47 ± 0.3 (343.15 K).

For `C1CCCCCC1` [cycloheptane] + C[n+]1ccn(CCCCS(=O)(=O)O)c1.O=S(=O)([N-]S(=O)(=O)C(F)(F)F)C(F)(F)F, the activity coefficient reads like this: (323.15 K) 92.5 ± 6.4; (333.15 K) 144 ± 9.9; (343.15 K) 180 ± 12.

Regarding `C1CCCCCC1` [cycloheptane] + C[n+]1ccn(CCCCS(=O)(=O)O)c1.O=S(=O)([O-])C(F)(F)F, the activity coefficient (323.15 K) was 225 ± 15, the activity coefficient (333.15 K) amounted to 270 ± 19 and the activity coefficient (343.15 K) stood at 287 ± 20.

Turning to `CCCCCCCCCC` [decane] + C[n+]1ccn(CCCCS(=O)(=O)O)c1.O=S(=O)([N-]S(=O)(=O)C(F)(F)F)C(F)(F)F, the activity coefficient is 371 ± 26 (323.15 K), 336 ± 23 (333.15 K) and 281 ± 19 (343.15 K).

Consider `ClCCl` [dichloromethane] + C[n+]1ccn(CCCCS(=O)(=O)O)c1.O=S(=O)([N-]S(=O)(=O)C(F)(F)F)C(F)(F)F, for which the activity coefficient reads like this: (323.15 K) 1.08 ± 0.07; (333.15 K) 1.18 ± 0.08; (343.15 K) 1.28 ± 0.08.

Regarding `ClCCl` [dichloromethane] + C[n+]1ccn(CCCCS(=O)(=O)O)c1.O=S(=O)([O-])C(F)(F)F, the activity coefficient is, setting by setting: (323.15 K) 1.3 ± 0.08; (333.15 K) 1.46 ± 0.1; (343.15 K) 1.61 ± 0.11.

Take `ClCCl` [dichloromethane] + C[n+]1ccn(CCCCS(=O)(=O)O)c1.O=S(=O)([O-])O: the activity coefficient reads like this: (323.15 K) 3.5 ± 0.24; (333.15 K) 3.48 ± 0.24; (343.15 K) 3.37 ± 0.23.

With `CCOCC` [diethyl ether] + C[n+]1ccn(CCCCS(=O)(=O)O)c1.O=S(=O)([N-]S(=O)(=O)C(F)(F)F)C(F)(F)F, the activity coefficient by setting is: (323.15 K) 0.4 ± 0.1; (333.15 K) 0.53 ± 0.04; (343.15 K) 0.65 ± 0.04.

In the case of `CCOCC` [diethyl ether] + C[n+]1ccn(CCCCS(=O)(=O)O)c1.O=S(=O)([O-])C(F)(F)F, the activity coefficient (323.15 K) came out at 4.51 ± 0.31, the activity coefficient (333.15 K) amounted to 4.36 ± 0.3 and the activity coefficient (343.15 K) is 4.21 ± 0.29.

As to `CC(C)OC(C)C` [diisopropyl ether] + C[n+]1ccn(CCCCS(=O)(=O)O)c1.O=S(=O)([O-])C(F)(F)F, the activity coefficient was 11.7 ± 0.8 (323.15 K), 13.3 ± 0.91 (333.15 K) and 14.9 ± 1 (343.15 K).

As to `CCCCCCCCCCCC` [dodecane] + C[n+]1ccn(CCCCS(=O)(=O)O)c1.O=S(=O)([N-]S(=O)(=O)C(F)(F)F)C(F)(F)F, the activity coefficient runs as follows: (323.15 K) 684 ± 47; (333.15 K) 588 ± 40; (343.15 K) 557 ± 38.

Consider `CCCCCCCCCCCC` [dodecane] + C[n+]1ccn(CCCCS(=O)(=O)O)c1.O=S(=O)([O-])C(F)(F)F, for which the activity coefficient reads like this: (323.15 K) 1490 ± 100; (333.15 K) 1020 ± 70; (343.15 K) 997 ± 69.

As to `CCCCCCCCCCCC` [dodecane] + C[n+]1ccn(CCCCS(=O)(=O)O)c1.O=S(=O)([O-])O, the activity coefficient is 1310 ± 90 (323.15 K), 1200 ± 82 (333.15 K) and 1140 ± 79 (343.15 K).

For the molecule `CCO` [ethanol] + C[n+]1ccn(CCCCS(=O)(=O)O)c1.O=S(=O)([N-]S(=O)(=O)C(F)(F)F)C(F)(F)F, the activity coefficient by setting is: (333.15 K) 0.08 ± 0.03; (343.15 K) 0.1.

`CCc1ccccc1` [ethylbenzene] + C[n+]1ccn(CCCCS(=O)(=O)O)c1.O=S(=O)([N-]S(=O)(=O)C(F)(F)F)C(F)(F)F: the activity coefficient is 5.37 ± 0.37 (323.15 K), 5.79 ± 0.39 (333.15 K) and 5.8 ± 0.4 (343.15 K).

Turning to `CCc1ccccc1` [ethylbenzene] + C[n+]1ccn(CCCCS(=O)(=O)O)c1.O=S(=O)([O-])C(F)(F)F, the activity coefficient is, setting by setting: (323.15 K) 10.8 ± 0.74; (333.15 K) 10.3 ± 0.7; (343.15 K) 10.3 ± 0.7.

For the molecule `CCc1ccccc1` [ethylbenzene] + C[n+]1ccn(CCCCS(=O)(=O)O)c1.O=S(=O)([O-])O, the activity coefficient came out at 62.7 ± 4.3 (323.15 K), 57.6 ± 3.9 (333.15 K) and 54.5 ± 3.7 (343.15 K).

Consider `CO` [methanol] + C[n+]1ccn(CCCCS(=O)(=O)O)c1.O=S(=O)([N-]S(=O)(=O)C(F)(F)F)C(F)(F)F, for which the activity coefficient reads like this: (323.15 K) 0.06; (333.15 K) 0.08 ± 0.03; (343.15 K) 0.09 ± 0.03.

Regarding `C[N+](=O)[O-]` [nitromethane] + C[n+]1ccn(CCCCS(=O)(=O)O)c1.O=S(=O)([N-]S(=O)(=O)C(F)(F)F)C(F)(F)F, the activity coefficient was 0.6 ± 0.1 (323.15 K), 0.6 ± 0.1 (333.15 K) and 0.6 ± 0.1 (343.15 K).

On to `C[N+](=O)[O-]` [nitromethane] + C[n+]1ccn(CCCCS(=O)(=O)O)c1.O=S(=O)([O-])C(F)(F)F, for which the activity coefficient by setting is: (323.15 K) 0.72 ± 0.05; (333.15 K) 0.71 ± 0.05; (343.15 K) 0.71 ± 0.05.
